Experimental data taken from patent publication US12134759B2, “Glomerulus on a chip to recapitulate glomerular filtration barrier” (Children's Hospital Los Angeles, priority 2019, dated 2024).
“Also recorded” adds a separate entry of the source. No end group written: not given here.

Columns and labels:
[1] = test system: GOAC (human podocytes + hGEC glomerular filtration barrier); assay: Albumin permselectivity assay on the GOAC after puromycin aminonucleoside (PAN) injury; format: cell-based; details: PAN 5 days (10 μg/ml, 10 mg/ml elsewhere in the source); albumin-FITC 40 mg/ml; hAKPC-P+hGEC, hiPOD+hGEC, hpPOD+hGEC chips
Experimental: (§1) An albumin and inulin permeability assay were established to evaluate the efficiency of the created GFB. The number of chips used for each experiment is described in the corresponding figure legend. Media was aspirated from the bottom inlet and outlet, to which PBS was added. Then, media from the top inlet and outlet was aspirated. Fifty microliters albumin-FITC (Millipore Sigma, c #A9771) or inulin-FITC (10 mg/ml, Sigma, c #F3272) was added to the top inlet and outlet, such that the orientation of filtration would be simulated as in native blood flow: from endothelial cells, through podocytes, and into the urinary space of Bowman's capsule. […] Absorbance was measured using the Perkin Elmer Victor 3 plate reader using Wallac 1420 workstation software (fluorescein 485/535, 0.1 s). For long-term studies, the same chips were evaluated for permselectivity at respectively 1, 2, 3, and 4 weeks (hAKPC and hpPOD; hiPOD were evaluated for weeks 1 and 2 since after this time frame these chips are not properly functioning) after hGEC seeding. […] After each reading, as described above, the albumin-FITC solution and PBS were removed from the top and bottom inlets and outlets and chips were carefully rinsed with PBS twice to remove excess albumin-FITC before returning to fresh culture medium. […] Efficiency at each time point is expressed as %±SEM. […]

podocytes in GOAC = assay: F-actin staining of podocytes in the GOAC before and after PAN damage; format: cell-based, human; details: after PAN damage; hAKPC-P+hGEC, hiPOD+hGEC, hpPOD+hGEC chips
Experimental: Immunofluorescent staining was performed on OrganoPlate™ and chamber slides of representative cell types: following fixation by 4% paraformaldehyde (Santa Cruz Biotechnology c #sc-281692) and serial washes with PBS. Chips/wells of interest were prepared for staining by blocking with 5% bovine serum albumin (Jackson ImmunoResearch Lab, c #001-000-162) in PBS for 30 min. Primary, secondary, and pre-conjugated antibodies were diluted in 2.5% BSA Jackson ImmunoResearch Lab. c #001-000-162) as indicated in Table 1. Thirty microliters of solution were added to the top and bottom inlets and outlets of the chips or 100 μl of solution was added directly into the chamber slide wells. Primary antibodies were incubated at RT for 1 h; following serial washes, secondary antibodies were incubated at RT for 30 min. After a final series of washes in PBS, DAPI was applied (1:1000 in PBS; BD Pharmingen, c #564907) and the OrganoPlate™ or the wells were stored at 4° C. until imaged by confocal microscopy (Zeiss 710 microscope) and processed using the ZEN10 software.
In all, 10 μg/ml of PAN, a nephrotoxic molecule (Cayman Chemical c #15509), was supplemented to the media for 5 days. Media without PAN was used as a control. […] After PAN injury, damage was assessed using the albumin assay performed on the chip as described above.

hAKPC-P+hGEC GOAC = assay: α-MSH drug rescue of MN serum effect, albumin permselectivity assay; format: cell-based, human; details: 10 ng/ml α-MSH with 0.5% MN serum (MN3), 24 h; filtrate at 60 min
Experimental: as §1

## CN(C)c1ncnc2c1ncn2[C@@H]1O[C@H](CO)[C@@H](N)[C@H]1O [PAN, puromycin aminonucleoside]
[1]
  albumin permselectivity / albumin leakage (fluorescein absorbance in filtrate after 60 min): loss of permselectivity for albumin; also recorded: marked and statistically significant increase
Podocytes in GOAC
  podocyte cytoskeleton (F-actin staining): cytoskeleton rearrangement; also recorded: widespread disruption of the cytoskeleton

## α-Melanocyte-stimulating hormone (SYSMEHFRWGKPV; ends and bridges not checked; UniProt P01189 138-150, looked up) [α-MSH]
hAKPC-P+hGEC GOAC
  proteinuria (albumin-FITC leakage) elicited by MN serum: prevented proteinuria elicited by MN serum; also recorded: prevented the proteinuric effects of MN sera
